The text below walks through data of paper PMC7061341, “Detection of the in vitro modulation of Plasmodium falciparum Arf1 by Sec7 and ArfGAP domains using a colorimetric plate-based assay” (Scientific Reports, 2020).

One assay deals with T1, PfArfGAP1 (Plasmodium falciparum, UniProt Q8I4Y5).
T1 construct: gene PF3D7_1244600; GAP domain, amino acids 1–161; with PfArf1 (NΔ17, GTP-loaded)
The assay can be described thus: plate-based GST-GGA3 GAT binding GAP assay; confirmed by tryptophan fluorescence. It counts as biochemical.

The target in assay [1] is ^NΔ17PfArf1 (His-tagged P. falciparum Arf1 minus the N-terminal 17 amino acids) (Plasmodium falciparum) (UniProt Q7KQL3).
The target in a further assay is T2, ARNO (Homo sapiens, UniProt Q99418).
T2 construct: gene CYTH2; Sec7 domain, amino acids 51–253; with Arf1 (NΔ17HsArf1 or NΔ17PfArf1, GDP-loaded)
T2 sequence (Q99418 51-253): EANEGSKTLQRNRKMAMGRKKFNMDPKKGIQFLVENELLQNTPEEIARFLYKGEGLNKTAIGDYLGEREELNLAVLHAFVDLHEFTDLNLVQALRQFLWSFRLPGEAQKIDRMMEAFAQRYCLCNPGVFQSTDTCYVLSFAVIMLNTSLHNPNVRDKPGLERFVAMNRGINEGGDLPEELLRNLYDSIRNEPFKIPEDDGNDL
T2 sequence (P84077 18-181 partner): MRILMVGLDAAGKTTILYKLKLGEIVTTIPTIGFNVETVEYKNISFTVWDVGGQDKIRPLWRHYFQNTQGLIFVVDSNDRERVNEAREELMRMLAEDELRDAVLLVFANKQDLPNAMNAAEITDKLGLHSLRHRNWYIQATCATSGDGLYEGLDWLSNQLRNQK
The assay can be described thus: plate-based GST-GGA3 GAT binding nucleotide exchange assay, […] compound. It counts as biochemical.

`CC1(C(=O)Nc2cccc3cccnc23)CCN1C(=O)CCC1CCCC1` (stereo not drawn) [Chem1099]: the IC50 at PfArfGAP1 was determined as 4.7 µM.

Consider “PfArfGAP1^GAP (putative GAP domain of P. falciparum ArfGAP1) (domain or fragment)”, for which the half-maximal GAP activity (EC50): deactivation of 1 µM ^NΔ17PfArf1-GTP by three-fold serial dilutions (0.5–0.002 µM) of the GAP domain, read by the GST-GGA3^GAT binding assay in assay [1] worked out at 0.021 µM.

For SecinH3, on ARNO, the “% inhibition at 50 μM” value stood at 93.

The IC50 is the concentration at which inhibition is half-maximal. High values mean lower potency, low ones higher potency.
